The source made the active and inactive calls. How the calls were made is not given here.
What follows are compounds tested against Monoacylglycerol lipase ABHD6 (Mus musculus) (UniProt Q8R2Y0) (assay: in situ ABHD6 versus DAGLb inhibition – cell-based, gel-based competitive ABPP, fluorescence, selectivity assay for DAGLb inhibitor project, dose response (AID 602335)). Details: not given.
Chain of Monoacylglycerol lipase ABHD6 (Mus musculus) (Q8R2Y0 whole entry, looked up): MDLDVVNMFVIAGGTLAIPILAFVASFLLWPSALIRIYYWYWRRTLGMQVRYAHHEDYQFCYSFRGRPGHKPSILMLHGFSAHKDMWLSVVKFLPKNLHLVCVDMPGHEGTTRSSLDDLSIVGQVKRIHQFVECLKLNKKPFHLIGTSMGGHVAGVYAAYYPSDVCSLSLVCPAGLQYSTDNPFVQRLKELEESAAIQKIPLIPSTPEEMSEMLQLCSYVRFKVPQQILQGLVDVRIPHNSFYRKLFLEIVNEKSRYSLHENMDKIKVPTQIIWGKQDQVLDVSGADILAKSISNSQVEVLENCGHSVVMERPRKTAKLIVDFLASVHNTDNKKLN

SMILES | IC50
O=C(N1CCCCC1c1ccccc1)n1cc(-c2ccc(-c3ccccc3)cc2)nn1 (stereo unspecified) | 0.17 nM
COc1ccc(-c2ccc(-c3cn(C(=O)N4CCCCC4c4ccccc4)nn3)cc2)cc1 (stereo unspecified) | 1.3 nM

The compounds below were run against Diacylglycerol lipase-beta (Mus musculus) (UniProt Q91WC9) in the same assay as above. Details: DAGLb.
Chain of Diacylglycerol lipase-beta (Mus musculus) (Q91WC9 whole entry, looked up): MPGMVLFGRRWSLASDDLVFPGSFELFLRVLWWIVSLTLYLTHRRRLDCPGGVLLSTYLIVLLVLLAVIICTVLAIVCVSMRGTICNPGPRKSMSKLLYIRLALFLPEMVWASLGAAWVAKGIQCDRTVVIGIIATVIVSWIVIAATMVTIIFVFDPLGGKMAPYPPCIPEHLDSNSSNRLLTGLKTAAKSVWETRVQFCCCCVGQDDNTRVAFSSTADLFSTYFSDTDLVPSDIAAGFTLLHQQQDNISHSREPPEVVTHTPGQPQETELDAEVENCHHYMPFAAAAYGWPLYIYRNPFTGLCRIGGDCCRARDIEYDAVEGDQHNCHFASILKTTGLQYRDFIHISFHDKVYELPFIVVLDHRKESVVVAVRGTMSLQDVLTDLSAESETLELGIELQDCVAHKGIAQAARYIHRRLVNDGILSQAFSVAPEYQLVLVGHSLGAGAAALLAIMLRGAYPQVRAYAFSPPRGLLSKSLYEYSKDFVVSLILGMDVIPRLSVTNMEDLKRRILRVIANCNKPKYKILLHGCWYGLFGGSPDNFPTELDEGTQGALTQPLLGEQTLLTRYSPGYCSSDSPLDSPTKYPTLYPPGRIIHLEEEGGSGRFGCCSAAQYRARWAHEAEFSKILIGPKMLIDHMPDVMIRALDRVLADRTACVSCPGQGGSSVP

SMILES | IC50
O=C(N1CCCCC1c1ccccc1)n1cc(-c2ccc(-c3ccccc3)cc2)nn1 (stereo unspecified) | > 100 nM (inactive)
COc1ccc(-c2ccc(-c3cn(C(=O)N4CCCCC4c4ccccc4)nn3)cc2)cc1 (stereo unspecified) | > 100 nM (inactive)
O=C(N1CCCCC1c1ccccc1)n1cc(-c2ccc(-c3cccc(CO)c3)cc2)nn1 (stereo unspecified) | > 100 nM (inactive)
O=C(O)c1cccc(-c2ccc(-c3cn(C(=O)N4CCCCC4Cc4ccccc4)nn3)cc2)c1 (stereo unspecified) | > 100 nM (inactive)

Source: PubChem BioAssay AID602335 (The Scripps Research Institute Molecular Screening Center, 2012)
